Assay results taken from patent publication US6656949B1, “4-anilinofuro [3,2-c] quinoline derivatives, and preparation processes and uses of the same” (Kaohsiung Medical University, priority 2002, dated 2003).
Where a name gives a salt, the structure may show the parent alone. Read-outs that look alike come from different tables or passages of the source.

How the values were obtained:
[1] = test system: CCRF-CEM, HL-60 (TB), K-562, MOLT-4, RPMI-8226, and SR of leukemia; test: In vitro anticancer assay (NCI tumor cells screen), leukemia panel; format: cell-based; conditions: leukemia cell lines, read-out: GI50 (drug molar concentration causing 50% cell growth inhibition), Leukemia
[2] = test system: A549/ATCC, EKVX, HOP-62, HOP-92, NCI-H226, NCI-H23, NCI-H322M, and NCI-H522 of non-small cell lung cancer; test: In vitro anticancer assay (NCI tumor cells screen), lung cancer panel; format: cell-based, human; conditions: non-small cell lung cancer cell lines, read-out: GI50 (drug molar concentration causing 50% cell growth inhibition), Lung Cancer
[3] = test system: COLO 205, HCC-2998, HCT-116, HCT-15, HT29, KM12, and SW-620 of colon cancer; test: In vitro anticancer assay (NCI tumor cells screen), colon cancer panel; format: cell-based, human; conditions: colon cancer cell lines, read-out: GI50 (drug molar concentration causing 50% cell growth inhibition), Colon Cancer
[4] = test system: SF-268, SF-295, SF-539, SNB-19, SNB-75, and U251 of CNS cancer; test: In vitro anticancer assay (NCI tumor cells screen), CNS cancer panel; format: cell-based, human; conditions: CNS cancer cell lines, read-out: GI50 (drug molar concentration causing 50% cell growth inhibition), CNS Cancer
[5] = test system: LOX IMVI, MALME-3M, M14, SK-MEL-2, SK-MEL-28, SK-MEL-5, UACC-62, and UACC-257 of melanoma; test: In vitro anticancer assay (NCI tumor cells screen), melanoma panel; format: cell-based, human; conditions: melanoma cell lines, read-out: GI50 (drug molar concentration causing 50% cell growth inhibition), Melanoma
[6] = test system: IGROV1, OVCAR-3, OVCAR-4, OVCAR-5, OVCAR-8, and SK-OV-3 of ovarian cancer; test: In vitro anticancer assay (NCI tumor cells screen), ovarian cancer panel; format: cell-based, human; conditions: ovarian cancer cell lines, read-out: GI50 (drug molar concentration causing 50% cell growth inhibition), Ovarian Cancer
[7] = test system: 786-0, A498, ACHN, CAKI-1, RXF 393, SN12C, TK-10, and UO-31 of renal cancer; test: In vitro anticancer assay (NCI tumor cells screen), renal cancer panel; format: cell-based, human; conditions: renal cancer cell lines, read-out: GI50 (drug molar concentration causing 50% cell growth inhibition), Renal Cancer
[8] = test system: PC-3 and DU-145 of prostate cancer; test: In vitro anticancer assay (NCI tumor cells screen), prostate cancer panel; format: cell-based, human; conditions: prostate cancer cell lines, read-out: GI50 (drug molar concentration causing 50% cell growth inhibition), Prostate Cancer
[9] = test system: MCF7, MCF7/ADR-RES, MDA-MB-231/ATCC, HS 578T, MDA-MB-435, MDA-N, and T-47D of breast cancer; test: In vitro anticancer assay (NCI tumor cells screen), breast cancer panel; format: cell-based, human; conditions: breast cancer cell lines, read-out: GI50 (drug molar concentration causing 50% cell growth inhibition), Breast Cancer
[10] = test system: 60 human tumor cell lines; test: In vitro anticancer assay (NCI tumor cells screen), mean over 60 cell lines; format: cell-based; conditions: mean values over 60 cell lines tested
[11] = test system: UACC-257; test: In vitro anticancer assay (NCI tumor cells screen), UACC-257; format: cell-based; conditions: Homo sapiens; melanoma cell line UACC-257; read-out: GI50 against UACC-257
[12] = test system: UACC-62; test: In vitro anticancer assay (NCI tumor cells screen), UACC-62; format: cell-based; conditions: Homo sapiens; melanoma cell line UACC-62; read-out: GI50 against UACC-62
[13] = test system: UO-31; test: In vitro anticancer assay (NCI tumor cells screen), UO-31; format: cell-based; conditions: Homo sapiens; renal cancer cell line UO-31; read-out: GI50 against UO-31

Row | Structure (SMILES) | melting point | GI50 ([1]; Homo sapiens) | GI50 ([2]; Homo sapiens) | GI50 ([3]; Homo sapiens) | GI50 ([4]; Homo sapiens) | GI50 ([5]; Homo sapiens) | GI50 ([6]; Homo sapiens) | GI50 ([7]; Homo sapiens) | GI50 ([8]; Homo sapiens, DU-145) | GI50 ([9]; Homo sapiens) | GI50 ([10]; Homo sapiens) | GI50 [11] | GI50 [12] | GI50 [13] | also measured
1 | CC(=NO)c1cccc(Nc2nc3ccccc3c3occc23)c1 (as salt: HCl) [Compound 4, 1-[3-(furo[3,2-c]quinolin-4-ylamino)phenyl]ethanone oxime] | 164 °C (dec.) | – | – | – | – | – | – | – | – | – | – | – | – | – | –
2 | CON=C(C)c1cccc(Nc2nc3ccccc3c3occc23)c1 [Compound 5, 1-[3-(furo[3,2-c]quinolin-4-ylamino)phenyl]ethanone O-methyloxime] | – | 15.4 µM | 10.8 µM | 10.3 µM | 14.8 µM | 11 µM | 15.2 µM | 10.1 µM | 15.2 µM | 13.1 µM | 8.78 µM | 0.042 µM | < 0.01 µM | < 0.01 µM | –
3 | CC(=NO)c1cccc(Nc2nc3ccccc3c3occc23)c1 [Compound 4, 1-[3-(furo[3,2-c]quinolin-4-ylamino)phenyl]ethanone oxime] | – | 9.26 µM | 8.98 µM | 10.3 µM | 14.8 µM | 9.82 µM | 14.5 µM | 10.3 µM | 12.7 µM | 12 µM | 7.8 µM | < 0.01 µM | < 0.01 µM | 0.03 µM | –
4 | CON=C(C)c1cccc(Nc2nc3ccccc3c3occc23)c1 (as salt: HCl) [Compound 5, 1-[3-(furo[3,2-c]quinolin-4-ylamino)phenyl]ethanone O-methyloxime] | 222 to 223 °C | – | – | – | – | – | – | – | – | – | – | – | – | – | –
5 | CC(=O)c1cccc(Nc2nc3ccccc3c3occc23)c1 [Compound 3] | – | – | – | – | – | – | – | – | – | – | – | – | – | – | GI50 [1]: 91.2 µM; GI50 [2]: 15.5 µM; GI50 [3]: 42.8 µM; GI50 [4]: 19.1 µM; GI50 [5]: 40.2 µM; GI50 [6]: 28.4 µM; GI50 [7]: 16.1 µM; GI50 [8]: 32.5 µM; GI50 [9]: 34 µM; GI50 [10]: 22.5 µM
